ChEMBL document CHEMBL3046336, “Assessment of the impact of insecticides on Anagrus nilaparvatae (Pang et Wang) (Hymenoptera: Mymanidae), an egg parasitoid of the rice planthopper, Nilaparvata lugens (Hemiptera: Delphacidae)” (Crop Prot, 2008)

How the values were obtained:
[1] = Acute contact toxicity against adult Anagrus nilaparvatae assessed as dead parasitoid wasps compound treated for 1 hr measured after 8 hr wash-out period
[2] = Acute oral toxicity against female adult Anagrus nilaparvatae in petridish under laboratory conditions assessed as mortality compound treated as emulsible concentrate with acetone and Triton X-100 measured after 1 to 8 hr; details: in vivo
[3] = Residual toxicity against compound treated rice leaves-fed adult Anagrus nilaparvatae assessed as mortality measured on day 0 post insecticide treatment to plant; details: in vivo, oral
[4] = Chronic toxicity against female adult Anagrus nilaparvatae in petridish under laboratory conditions assessed as reduction in longetivity compound treated as emulsible concentrate with acetone and Triton X-100 relative to untreated control; parameters: scale not given: the % may be the effect or the level left
[5] = Chronic toxicity against female adult Anagrus nilaparvatae in petridish under laboratory conditions assessed as reduction in fecundity compound treated as emulsible concentrate with acetone and […] relative to untreated control; parameters: scale not given: the % may be the effect or the level left
[6] = Acute oral toxicity against female adult Anagrus nilaparvatae in petridish under laboratory conditions assessed as mortality compound treated as emulsible concentrate with acetone and Triton X-100 measured after 8 hr; details: in vivo
[7] = Residual toxicity against compound treated rice leaves-fed adult Anagrus nilaparvatae assessed as mortality measured on day 7 post insecticide treatment to plant; details: in vivo
[8] = Acute oral toxicity against female adult Anagrus nilaparvatae in petridish under laboratory conditions assessed as mortality compound treated as emulsible concentrate with acetone and Triton X-100 measured after 2 hr; details: in vivo
[9] = Acute oral toxicity against female adult Anagrus nilaparvatae in petridish under laboratory conditions assessed as mortality compound treated as emulsible concentrate with acetone and Triton X-100 measured after 4 hr; details: in vivo

SMILES | LC50 [1] [mgAi/L] | mortality at 8 h [6] [%] | mortality at 7 day ([7]; oral) [%] | other results
CC[C@H](C)[C@H]1O[C@]2(C=C[C@@H]1C)C[C@@H]1C[C@@H](C/C=C(\C)[C@@H](O[C@H]3C[C@H](OC)[C@@H](O[C@H]4C[C@H](OC)[C@@H](O)[C@H](C)O4)[C@H](C)O3)[C@@H](C)/C=C/C=C3\CO[C@@H]4[C@H](O)C(C)=C[C@@H](C(=O)O1)[C@]34O)O2.CO[C@H]1C[C@H](O[C@H]2[C@H](C)O[C@@H](O[C@@H]3/C(C)=C/C[C@@H]4C[C@@H](C[C@]5(C=C[C@H](C)[C@@H](C(C)C)O5)O4)OC(=O)[C@@H]4C=C(C)[C@@H](O)[C@H]5OC/C(=C\C=C\[C@@H]3C)[C@]54O)C[C@@H]2OC)O[C@@H](C)[C@@H]1O [ABAMECTIN] | 8.499 |  |  | 
CC(C)N1C(=O)N(c2ccccc2)CS/C1=N\C(C)(C)C [BUPROFEZIN] | > 1000 |  |  | mortality [2]: 29.4%; mortality at 0 day [3]: 1.1%
O=C(NC(=O)c1c(F)cccc1F)Nc1cc(Cl)c(Oc2ncc(C(F)(F)F)cc2Cl)c(Cl)c1 [CHLORFLUAZURON] | > 1000 |  |  | Activity [4]: 29%; mortality [2]: 4%; Activity [5]: 49%
CCOP(=S)(OCC)Oc1nc(Cl)c(Cl)cc1Cl [CHLORPYRIFOS] | 0.002 | 100 | < 10 | 
COP(=O)(OC)OC=C(Cl)Cl [DICHLORVOS] | 15.946 | 100 |  | mortality at 2 h [8]: 100%
N#Cc1nn(-c2c(Cl)cc(C(F)(F)F)cc2Cl)c(N)c1[S+]([O-])C(F)(F)F (configuration not stated) [FIPRONIL] | 0.18 | 100 | 50 | 
Cc1cc(C)cc(C(=O)N(NC(=O)c2ccc3c(c2C)OC(C)C3)C(C)(C)C)c1 (configuration not stated) [FUXIAN] | > 1000 |  |  | Activity [4]: 29%; mortality [2]: 1.1%; Activity [5]: 47%
O=C(NC(=O)c1c(F)cccc1F)Nc1cc(Cl)c(OC(F)(F)C(F)F)c(Cl)c1 [HEXAFLUMURON] | > 1000 |  |  | Activity [4]: 24%; mortality [2]: 1.3%; Activity [5]: 28%
O=[N+]([O-])NC1=NCCN1Cc1ccc(Cl)nc1 [IMIDACLOPRID] | 0.021 |  | 80.7 | Activity [9]: Toxic; mortality at 0 day [3]: 97.6%
CNC(=O)Oc1ccccc1C(C)C [ISOPROCARB] | 1.071 |  |  | Activity [9]: Toxic
COP(N)(=O)SC (configuration not stated) [METHAMIDOPHOS] |  | 100 | < 10 | 
CCOc1ccc([Si](C)(C)CCCc2ccc(F)c(Oc3ccccc3)c2)cc1 [SILAFLUOFEN] | 14.22 | 37.6 | 1.1 | 
CN1COCN(Cc2cnc(Cl)s2)/C1=N\[N+](=O)[O-] [THIAMETHOXAM] | 0.52 |  | 66.8 | Activity [9]: Toxic
CCOP(=S)(OCC)Oc1ncn(-c2ccccc2)n1 [TRIAZOPHOS] | 1.253 | 100 |  | mortality at 7 day [7]: 54.6%
